Results published in a melting point compilation (Tetko et al.; mined from patent text by program, amines drawn as free bases though some values may be those of a salt).

Row | melting point | SMILES
1 | 114 to 116 °C | CC1(C)Oc2ccc([N+](=O)[O-])cc2[C@@H](O)[C@@H]1Br (relative stereo)
2 | 121 to 122 °C | O=C1COCC(=O)N1CCCCCCN1CCCCC1
3 | 241 to 244 °C | Nc1nc(N)nc(-c2ccc3c(c2)OCCO3)n1
4 | 196 °C | CCOC(=O)c1c(N2CCN(C=O)CC2)c2cc(C)ccc2n(Cc2ccccc2)c1=O
5 | 165 to 167 °C | CCOC(=O)c1cnc2c(SCc3ccccc3)cccn2c1=O
6 | 193 to 194 °C | Nc1nc2[nH]c(CCC#Cc3ccc(C(=O)N[C@@H](CCC(=O)O)C(=O)O)o3)cc2c(=O)[nH]1
7 | 145 to 147 °C | Cc1ccc([C@H](CC(=O)O)NC(=O)Nc2c(N)cc(C)n(Cc3ccccc3Cl)c2=O)cc1
8 | 125 to 140 °C | NC1=NC(c2cccc(-c3cccnc3F)c2)(c2ccc3c(c2)OCCO3)C2=NCCCN12 (stereo unspecified)
9 | 295 to 296 °C | Nc1cc2[nH]c(=O)[nH]c2c2ccccc12
10 | 191 to 192 °C | N#CCCNc1nonc1-c1nc2ccccc2n1CC(=O)c1ccc(Cl)cc1
11 | 135 to 137 °C | COc1c(C)c2c(c(O)c1C/C=C(/Cl)CCC(=O)O)C(=O)OC2
12 | 184 to 185 °C | CCOC(=O)CN1Cc2c(C)cccc2NC1=O
13 | 53 to 57 °C | CCN1C(=O)Cc2cc(OC(=O)CCl)ccc21
14 | > 250 °C | COC(=O)c1ccc(-c2nc3[nH]c4ccccc4c3c(=O)[nH]2)cc1
15 | 218 to 219 °C | Nc1cc(Cl)ccc1Oc1c(C(=O)O)n(Cc2ccccc2)c2ccccc12
16 | 127 to 129 °C | CC1CCN=C2C(=O)c3cc(Br)ccc3N21 (stereo unspecified)
17 | 48 to 49 °C | O=C1c2ccccc2CCC1C(=O)C(F)(F)F (stereo unspecified)
18 | 132 to 133 °C | CON(c1ccc([N+](=O)[O-])cc1Cl)S(=O)(=O)c1cc(Cl)ccc1Cl
19 | 105 to 107 °C | O=C1CCc2c(F)cc(Cl)cc21
20 | 253 to 255 °C | Cc1ccc(C)c(-c2c3ccccc3nc3ccc(NC(=O)c4ccccc4)cc23)c1
21 | 197 to 198 °C | Cn1cc(C(=O)NCc2ccc(Cl)cc2)c(=O)c2cc(CCCO)sc21
22 | 189 to 190 °C | C[C@@H]1COC(=O)N1c1nc(-c2ccc(Br)cc2)cs1
23 | 113 to 115 °C | CN(C)c1ccccc1CSC1=NC(=O)C(C)(C)N1
24 | 92 to 93 °C | Cc1cc(O)ccc1COCCn1ccnn1

Row | melting point | SMILES
25 | 70 to 72 °C | CC1(C)Cc2ccccc2C=[N+]1[O-]
26 | 142 to 143 °C | CC(C)NC(=O)c1ccc(C(=O)N2CCN(c3ncccc3N)CC2)nc1
27 | 113 to 115 °C | O=c1c(Cl)c(-c2ccc(F)cc2)c1=O
28 | 260 to 262 °C | O=c1c2c(CCc3ccc([N+](=O)[O-])cc3)n[nH]c2c2cccnc2n1-c1ccccc1
29 | 112 to 113 °C | O=C(Cc1ccc(OCc2ccccc2)cc1)P(=O)(O)O
30 | 155 to 156 °C | CCCCCc1cc2c(cc1C#C/C=C/C(C)=C/C(=O)O)C(C)(C)CCC2(C)C
31 | 76 to 77 °C | CC12CCC3C(CCC4CC=CCC43C)C1CC=C2Br (stereo unspecified)
32 | 194 to 195 °C | CC(C)(C)OC(=O)Nc1ccc(C(=O)O)c2ccccc12
33 | 132 to 133 °C | CCOC(=O)N1CCN(c2nc(NC(C)=O)ccc2F)CC1
34 | 284 to 286 °C | COc1ccccc1-c1c(N)c2ccc(Cl)cc2[nH]c1=O
35 | 251 to 256 °C | O=C(O)c1cn(C2CSC2)c2cc(F)c(F)cc2c1=O
36 | > 350 °C | Oc1cccc(-c2nc(Nc3ccc(Cl)cc3)c3ccccc3n2)n1
37 | 101 to 107 °C | CC(C)CC(NC(=O)C(Cc1c[nH]cn1)NC(=O)C(CC(=O)NCCc1ccccc1)Cc1cccc2ccccc12)C(O)CO (mixture of isomers)
38 | 89 to 92 °C | CN1CCN(c2ccc(S(=O)(=O)c3cccc(F)c3)c(N)c2)CC1
39 | 58 to 60 °C | CC(=O)NCc1nc(-c2ccccc2)c(-c2ccccc2)o1
40 | 116 to 118 °C | CC(CCCO)C1CCC2C3C(O)CC4CC(O)CCC4(C)C3CCC12C (stereo unspecified)
41 | 132 to 134 °C | C=C(C)CN1CCCC(C(=O)O)=Cc2cc(-c3ccc(OCCOCCCC)cc3)ccc21
42 | 166 °C | Cc1nc2n(C)c(C)cn2c(=O)c1CCN1CCC(n2ccc3ccccc32)CC1
43 | 292 to 295 °C | N#Cc1c(-c2ccccc2)[nH]c(=O)c2cccnc12
44 | 77 to 81 °C | COc1cccc(C(=O)N(CC=O)c2ccccc2OC)c1
45 | 124 to 126 °C | COc1ccc2c(c1)N(CCCCl)c1cccc(S(=O)(=O)N(C)C)c1S2
46 | 111 to 112 °C | O=C1N[C@H](Cc2ccc(C(F)(F)F)cc2)[C@H](c2ccoc2)O1 (racemic)
47 | 195 to 197 °C | Nc1c(Br)cc(Br)c(CCC(=O)O)c1Br
48 | 157 to 158 °C | CCOc1cc(OCC(=O)OCc2ccccc2)cc2c1C(=O)N(COC(=O)c1c(Cl)cccc1Cl)S2(=O)=O

Row | melting point | SMILES
49 | 147 to 148 °C | O=C(CCCc1ccccc1)N[C@H](Cc1ccc(F)cc1)[C@@H](O)c1ccc(F)cc1 (racemic)
50 | 104 to 105 °C | O=C(O)CSCCCCCCNS(=O)(=O)c1ccc(Cl)cc1
51 | 106 °C | CCCNS(=O)(=O)c1cc(C(=O)CCC(=O)O)ccc1Cl
52 | 143 to 144 °C | CC(c1ccco1)N(O)C(N)=O (stereo unspecified)
53 | 54 to 56 °C | O=C(Nc1ccccc1)OCCCCCCCCCCC=C(F)F
54 | 61 to 65 °C | CCCCCCN(Cc1ccccc1)c1c(N[C@@H](Cc2ccccc2)C(=O)O)c(=O)c1=O
55 | 177 to 178 °C | Cc1cnc(-c2ccc(O)cc2)o1
56 | 185 to 186 °C | [O-][N+]1=C(c2ccccc2F)c2cc(Cl)ccc2-c2ncncc2C1
57 | 108 °C | OC(CNC1=NCCN1)c1cccc(Cl)c1 (stereo unspecified)
58 | 109 to 110 °C | COCCOCCN1C(=O)C2(COc3cc4c(cc32)OCCO4)c2c(OC)ccc(OC)c21 (stereo unspecified)
59 | 114 to 115 °C | CCCc1nn(-c2ccc(C(F)(F)F)cn2)cc1CCCCOc1nn(-c2ccccc2)cc1CC(=O)O
60 | 106 to 107 °C | Cc1ccc(-c2n[nH]c3ccccc23)cc1
61 | 114 to 115 °C | Cc1ccc([N+](=O)[O-])cc1S(=O)(=O)N1CCOCC1
62 | 233 to 235 °C | O=Cc1ccc2oc3ncccc3c(=O)c2c1
63 | 365 °C | Cn1cc(C(=O)O)c(=O)c2c3cc(F)c(N4CCCC4)cc3ncc21
64 | 135 to 136 °C | CCOC(=O)c1c(CBr)nc2cc(OC)c(OC)cc2c1-c1ccc(OC)c(OC)c1
65 | 72 to 73 °C | ClCc1cccc2cc(-c3ccccc3)oc12
66 | 151 °C | CC(C)(Cc1ccc(F)cc1)NC(=O)Nc1ccccc1CCc1cc(C(C)(C)C)c(O)c(C(C)(C)C)c1
67 | 107 to 109 °C | O=C(CSc1ncc(Br)cn1)c1ccccc1
68 | 150 to 152 °C | CC(C)(C)c1ccc(S(=O)(=O)CS(=O)(=O)c2ccc(C(C)(C)C)cc2)cc1
69 | 166 to 169 °C | CCCCn1c(=O)c2[nH]cnc2n(CCCC)c1=O
70 | 85 °C | CCOC(=O)C(C)Oc1ccc(Oc2ccc3cc(Br)ccc3n2)cc1 (stereo unspecified)
71 | 180 to 182 °C | O=C(O)[C@]1(c2ccc(Br)cc2)CC1(c1ccccc1)c1ccccc1
72 | 76 to 77 °C | COC(=O)Cc1cccc(OCc2nc(CCc3nc(-c4ccccc4)oc3C)no2)c1

Row | melting point | SMILES
73 | 224 to 225 °C | O=S(=O)(C1CC1)N1CCC(Nc2nccc(-c3c(-c4ccc(F)c(O)c4)nc4sccn34)n2)CC1
74 | 124 to 128 °C | Cc1c(CCNC(=O)OC(C)(C)C)c2cc(S(=O)(=O)c3ccc(C(F)(F)F)cc3)ccc2n1C
75 | 206 to 207 °C | CC(C)(C)Sc1c(CC(C)(C)C(=O)O)n(Cc2ccc(Cl)cc2)c2ccc(Oc3ccccn3)cc12
76 | 230 to 232 °C | N#Cc1cnc2cc(-c3ccc(C=O)cc3)sc2c1Nc1ccc(Oc2ccccc2)cc1
77 | 234 to 236 °C | COc1ccc(C(=O)Nc2ccc(F)c(F)c2)cc1NS(=O)(=O)c1ccc([N+](=O)[O-])cc1
78 | 168 to 174 °C | Cc1ccc2nc(NCCCO)ccc2c1NC(=O)CC12CC3CC(CC(C3)C1)C2
79 | 209 to 211 °C | COc1cc2c(Nc3ccc(Cl)cc3F)ncnc2cc1OCCn1ccccc1=O
80 | 170 to 172 °C | CC(N)=CC(=O)c1cccs1
81 | 160 to 161 °C | CCCC1=C(C(=O)O)C(CC)n2ncc(C(=O)OCC)c2N1 (stereo unspecified)
82 | 254 to 256 °C | CCNc1nc2ccccc2n2cnnc12
83 | 42 to 43 °C | CC(=O)c1cccn1Cc1ccco1
84 | 208 to 209 °C | CCn1c(=O)[nH]c2c(C)nn(CC)c2c1=O
85 | 282 to 285 °C | Brn1nnc2c3scnc3ccc21
86 | 81 to 82 °C | COc1cccc2cc(CNCCNC(=O)C(C)(C)C)oc12
87 | > 300 °C | O=C(O)/C=C/c1ccc(-c2nc3c(=O)n(CC4CCCCC4)c(=S)n(CC4CCCCC4)c3[nH]2)cc1
88 | 217 to 220 °C | NC(=O)c1cnccc1-c1ccccc1C(=O)N1Cc2ccccc2Cc2ccccc21
89 | 124 °C | COC(=O)c1ccc(NCc2cc(S(C)(=O)=O)ccc2OCc2ccccc2)cc1
90 | 170 to 172 °C | COc1cc2c(cc1OC)C(C=Cc1ccc(N(C)C)cc1)=NN=C(C)C2
91 | 88 °C | c1ccc2nc(COc3ccc(NC4CCCC4)cc3)ccc2c1
92 | 174 to 176 °C | CC(C)(C)OC(=O)N1CCc2c(n(CCO)c3ccc(Cl)c(Cl)c23)CC1
93 | 164 to 165 °C | COc1cc2c(cc1OC)CCCC(C(=O)N1CCN(C(=O)c3cc(OC)c(OC)c(OC)c3)CC1)=C2
94 | 30.5 to 33.2 °C | CSc1c(F)cc(C(=O)CBr)cc1F
95 | 209 to 210 °C | C=C(C)Cc1c(C)c(NC(C)=O)c(C)c(C)c1O

Row | SMILES | melting point
96 | COc1c(C(O)CNC(C)(C)Cc2c(C)cc(C)cc2C)ccc(O)c1O (stereo unspecified) | 98 to 105 °C
97 | CC1Cc2cc3c(cc2C(c2ccc(N)cc2)=NN1)OCO3 (stereo unspecified) | 118 to 120 °C
98 | CCCCCCC(C)(C)c1cc(OC)c(C2C(O)[C@]3(C)CC[C@H]2C3(C)C)c(OC)c1 (stereo partly specified) | 96 to 98 °C
99 | Cc1cnc2c(c1)COP(=S)(N(C)C)O2 (stereo unspecified) | 101 to 102 °C
100 | COC1CN2[C@H]3CC[C@@H]2[C@@H]1[C@@H](c1ccc(Cl)c(Cl)c1)C3 (stereo partly specified) | 139 to 141 °C
101 | CC(=O)OC(c1cc2n(n1)CCOC2=O)C1(Br)C(=O)N2C(C(=O)OCc3ccc([N+](=O)[O-])cc3)=CSC21 (stereo unspecified) | 107 to 110 °C
